These results are taken from US20180332878A1, “BITTER TASTE INHIBITOR” (NAGAOKA CO., LTD., priority 2017, published 2018).

Assay type in all cases: in vivo, human
Test [1] can be described thus: Sensory evaluation, summary of Table 1. To be noted: added to a food or beverage having a bitter taste; without deteriorating the influence of the food or beverage itself. From the text:
The beer (without addition of isobutyl angelate) was tasted by seven panelists (one twenty-something male, one thirty-something male, one forty-something male, one fifty-something male, one sixty-something male, and one twenty-something female and one thirty-something female). Subsequently, the seven panelists rinsed their mouths sufficiently, and then the beer having isobutyl angelate added thereto (with addition of isobutyl angelate) was tasted by the seven panelists. The panelists compared the isobutyl-angelate-free beer with the isobutyl-angelate-containing beer, and then determined whether or not the bitter taste in the isobutyl-angelate-containing beer was improved compared with the isobutyl-angelate-free beer in accordance with the following criteria. When the sum total of the scores determined by the seven panelists was 10 points or greater, it was determined that the bitter taste was improved.
1 point: although a bitter taste was sensed, the bitter taste was improved compared with the isobutyl-angelate-free beer; and
0 point: the bitter taste was not improved.

Test [2] in a line: Sensory evaluation, summary of Table 3. To be noted: added to an extract of a crude drug having a bitter taste.
A short description of test [3]: Sensory evaluation, summary of Table 2. To be noted: added to an amino acid having a bitter taste.

Structures are written as SMILES.

As for `C/C=C(/C)C(=O)OCC(C)C` [isobutyl angelate, Isobutyl angelate], the “Effect on bitter taste (summary of Table 1)” value in test [1] was “the bitter taste is reduced”. Moreover, in test [2], the “Effect on bitter taste (summary of Table 3)” value is “a bitter taste derived from the crude drug is reduced”. Besides, the “Effect on bitter taste (summary of Table 2)” value in test [3] is listed as “the bitter taste derived from the amino acid is reduced”.
